Measured values reported in patent US6335354B2, “Aminopyridines and methods of using thereof” (CoCensys Inc., priority 2000, dated 2002).

How the values were obtained:
[1] = system: maximal electroshock-induced seizures (MES); experiment: maximum electroshock seizure test (MES); format: in vivo; settings: Mus musculus, iv; mice, injected i.v. 15 minutes before the test procedure; read-out: ED50 (the dose protecting 50% of animals), protection against MES
Description: The compounds of the present invention may be tested for in vivo anticonvulsant activity after i.v., p.o. or i.p. injection using a number of anticonvulsant tests in mice, including the maximum electroshock seizure test (MES). Maximum electroshock seizures were induced in male NSA mice weighing between 15-20 g and male Sprague-Dawley rats weighing between 200-225 g by application of current (50 mA, 60 pulses/sec, 0.8 msec pulse width, 1 sec duration, D.C., mice; 99 mA. 125 pulses/sec, 0.8 msec pulse width, 2 sec duration, D.C., rats) using a Ugo Basile FCT device (Model 7801). Mice were restrained by gripping the loose skin on their dorsal surface and saline-coated corneal electrodes were held lightly against the two corneae. Rats were allowed free movement on the bench top and ear-clip electrodes were used. […] A tonic seizure was defined as a hindlimb extension in excess of 90 degrees from the plane of the body. Results were treated in a quantal manner. The ability of N^3-[4-(4-fluorophenoxy)benzyl]pyridine-2,3-diamine to block maximal electroshock-iniduced seizures (MES) was determined according to the method above. N^3-[4-(4-Fluorophenoxy)benzyl]pyridine-2,3-diamine was injected i.v. to mice 15 minutes before the test procedure.

[2] = target: T1, hSkM1 isoform of Na+ channels (Homo sapiens, UniProt P35499); experiment: Electrophysiological assay, whole-cell patch-clamp recordings of voltage-sensitive Na+ currents; format: cell-based; settings: HEK-293 cells stably expressing hSkM1
T1 construct: expressed in transfected cells
Description: Cell preparalion. HEK-293 cells stably expressing the hSkM1 isoform of Na^+ channels (generous gift from Dr. A. L. George, Vanderbilt University Medical School) were cultured using standard techniques, as described previously (Verdoorn, T. A, et al., Neuron 4:919-928 (1990)). For electrophysiology, cells were plated onto 35 mm Petri dishes (pre-coated with poly-D-lysine) at a density of 1:40 on the day of re-seeding from confluent cultures. Our experience has been that cells are suitable for recordings for 2-3 days after plating.
Patch-clamp recordings of voltage-sensitive Na^+ currenis. Whole-cell voltage-clamp recordings were made using conventional patch-clamp techniques (Hamill et al, Pfluegers Arch. 391:85-100 (1981)) with an Axopatch 200A amplifier (Axon Instruments, Foster City, Calif.). Recordings were made within 2-3 hours after neuron dissociation. The recording chamber was continuously superfused with the external solution (150 mM NaCl, 5.4 mM KCl, 1.8 mM CaCl2, 1 mM MgCl2, 10 mM HEPES, 10 mM glucose, pH 7.4 (NaOH)) at a speed of about 1 mL/min. Recording pipettes were pulled from thick-walled capillaries (WPI, Sarasota, Fla.) and fire-polished. The pipette resistances ranged from 1 to 3 MΩ when the pipettes were filled with internal solution containing (in mM): 110 CsF, 10 NaCl, 5 MgCl2, 11 EGTA, 10 HEPES, pH adjusted to 7.4 with CsOH. Osmolality was set with a difference of 15-20 mmol/kg between external and internal solutions (lower inside the cell). Drugs and intervening wash-outs were applied through a linear array of flow pipes (Drummond Microcaps, 2 μL, 64-mm length). […] Currents were recorded at room temperature (22-25° C.), filtered at 5 kHz with an active 8-pole Bessel filter (Frequency Devices, Haverhill, Mass.), digitized at 10-50 μs intervals, and stored using Digidata 1200 analog/digital interface with Pclamp6/Clampex software (Axon Instruments). […] The inhibitory potency of drugs was assessed by measuring reductions in the peak amplitude of Na^+ currents induced by increasing concentrations of compounds tested. […]

T1 sequence (P35499 whole entry, canonical isoform): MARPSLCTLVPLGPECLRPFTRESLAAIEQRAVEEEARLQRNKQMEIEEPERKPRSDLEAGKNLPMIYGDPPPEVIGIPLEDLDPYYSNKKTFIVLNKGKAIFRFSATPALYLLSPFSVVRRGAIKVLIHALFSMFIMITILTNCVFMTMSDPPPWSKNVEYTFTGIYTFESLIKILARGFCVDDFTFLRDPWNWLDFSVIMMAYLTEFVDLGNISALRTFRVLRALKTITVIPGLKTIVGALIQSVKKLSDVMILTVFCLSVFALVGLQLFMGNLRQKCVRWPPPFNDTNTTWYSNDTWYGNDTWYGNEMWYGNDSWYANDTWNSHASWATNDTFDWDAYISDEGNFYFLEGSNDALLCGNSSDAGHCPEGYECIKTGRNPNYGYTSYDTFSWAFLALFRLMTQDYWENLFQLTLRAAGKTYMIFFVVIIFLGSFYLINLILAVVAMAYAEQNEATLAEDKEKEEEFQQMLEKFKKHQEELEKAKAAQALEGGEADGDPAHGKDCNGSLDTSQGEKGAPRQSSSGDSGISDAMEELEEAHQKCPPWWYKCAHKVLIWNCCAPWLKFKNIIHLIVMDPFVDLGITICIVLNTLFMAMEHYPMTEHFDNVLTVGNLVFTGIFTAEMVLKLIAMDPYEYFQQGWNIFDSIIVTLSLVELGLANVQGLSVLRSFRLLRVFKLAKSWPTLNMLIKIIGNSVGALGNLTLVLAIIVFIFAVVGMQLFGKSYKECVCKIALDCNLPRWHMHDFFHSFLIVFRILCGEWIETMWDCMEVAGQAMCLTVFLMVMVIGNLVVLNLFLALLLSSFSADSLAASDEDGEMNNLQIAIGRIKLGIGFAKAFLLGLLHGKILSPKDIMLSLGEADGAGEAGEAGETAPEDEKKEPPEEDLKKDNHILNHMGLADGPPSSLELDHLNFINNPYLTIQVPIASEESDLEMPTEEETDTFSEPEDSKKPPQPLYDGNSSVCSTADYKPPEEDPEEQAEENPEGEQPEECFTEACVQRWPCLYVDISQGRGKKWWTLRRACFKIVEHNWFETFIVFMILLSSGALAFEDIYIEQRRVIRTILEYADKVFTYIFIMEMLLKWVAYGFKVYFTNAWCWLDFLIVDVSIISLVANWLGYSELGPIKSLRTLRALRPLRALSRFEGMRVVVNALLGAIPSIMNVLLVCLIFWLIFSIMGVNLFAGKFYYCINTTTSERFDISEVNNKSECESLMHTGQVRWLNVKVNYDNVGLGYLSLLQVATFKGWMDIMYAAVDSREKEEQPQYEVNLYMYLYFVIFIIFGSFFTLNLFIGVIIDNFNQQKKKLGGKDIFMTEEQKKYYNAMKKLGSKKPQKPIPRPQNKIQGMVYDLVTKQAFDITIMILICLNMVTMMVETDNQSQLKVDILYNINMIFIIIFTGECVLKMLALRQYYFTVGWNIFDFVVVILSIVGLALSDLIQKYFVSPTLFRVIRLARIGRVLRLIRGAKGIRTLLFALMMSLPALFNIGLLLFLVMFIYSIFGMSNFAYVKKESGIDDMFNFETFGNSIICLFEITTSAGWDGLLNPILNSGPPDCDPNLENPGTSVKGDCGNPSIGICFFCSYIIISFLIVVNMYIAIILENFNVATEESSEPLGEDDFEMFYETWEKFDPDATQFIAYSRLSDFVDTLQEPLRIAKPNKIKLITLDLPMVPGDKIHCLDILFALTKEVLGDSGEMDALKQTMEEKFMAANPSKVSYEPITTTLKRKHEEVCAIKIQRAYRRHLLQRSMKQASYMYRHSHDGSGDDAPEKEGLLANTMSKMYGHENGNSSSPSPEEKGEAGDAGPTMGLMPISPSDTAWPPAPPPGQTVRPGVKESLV

Row | inhibition of voltage-gated sodium currents [2] | Ki ([2]; inactivated state, read-out: apparent antagonist dissociation constant Ki (the concentration of a compound that produces half maximal inhibition) for inactivated sodium channels) [nM] | potency towards Na+ channels in their resting states ([2]; resting state) | SMILES | ED50 [1] [mg/kg]
1 | – | – | – | Nc1ncccc1NCc1ccc(OCc2cccc(F)c2)cc1 [N^3-[4-(3-Fluorobenzyloxy)benzyl]pyridine-2,3-diamine] | 2.9
2 | dose-dependent inhibition | 60 | weak potency | Nc1ncccc1NCc1ccc(Oc2ccc(F)cc2)cc1 [N^3-[4-(4-Fluorophenoxy)benzyl]pyridine-2,3-diamine] | –
